≈ marks a conversion by molar mass, not a printed value.
How the values were obtained:
[1] = Solubilities of the cucurbituril derivatives in water, methanol, dimethylsulfoxide and acetonitrile; format: physicochemical
[2] = Binding constant measured using a microcalorimeter (VP-ITC); conditions: 0.05 M tris buffered solution pH 7.2
Experimental: A 5.5 mM CB*[5] solution and 110 mM-KCl solution were prepared with 0.05 M tris buffered solution having a pH of 7.2. Then, the binding constant of CB*[5] was measured using a microcalorimeter (VP-ITC, manufactured by MicroCal). As a result, CB*[5] forms a 1:2 complex with potassium ions with a primary binding constant of 2.8×10^4 M^−1 and a secondary binding constant of 1.5×10^2 M^−1. CB*[5] can selectively bind with alkali metal ions, as well as with ammonium ions. The result confirms that cucurbituril derivatives can be used as ion sensors.

`O=C1N2CN3C(=O)N4CN5C(=O)N6CN7C(=O)N8CN9C(=O)N%10CN1C1%11CCCCC21N1CN2C(=O)N(CN%12C(=O)N(CN%13C(=O)N(CN%14C(=O)N(CN%11C1=O)C%101CCCCC9%141)C81CCCCC7%131)C61CCCCC5%121)C41CCCCC321` (stereo not shown) [CB*[5]] showed a Solubility ([1]; Acetonitrile) of 0.67 mM (≈ 0.738 mg/mL), a Solubility ([1]; Dimethylsulfoxide) of 18 mM (≈ 19.8 mg/mL) and a Solubility ([1]; Methanol) of 31 mM (≈ 34.1 mg/mL). The Solubility ([1]; Water) was 260 mM (≈ 286 mg/mL), the “complex stoichiometry with potassium ions” value [2] was 1:2 complex and the primary binding constant ([2]; potassium ions (KCl)) was 28000 M⁻¹. For the same molecule, the secondary binding constant ([2]; potassium ions (KCl)) was 150 M⁻¹.

From US7179908B2, “Water-and organic-soluble cucurbituril derivatives, their preparation methods, their separation methods and uses” (Pohang University of Science and Technology Foundation, priority 2001, dated 2007)
